Data set [1] is described as follows: Stability in human skin S9 fraction. To be noted: human, human skin S9 fraction, pH 7.4; 0.3 mg/mL S9, NADPH, UDPGA, 0.5 μM compound; read-out: T1/2 (min) in human skin S9 fractions. The data set is classed as in vitro ADME. As to the method: An incubation mixture was prepared containing 50 mM potassium phosphate buffer, pH 7.4), 0.3 mg/mL human skin S9 (Sekisui Xenotech), NADPH (final conc 0.8 mg/mL), UDPGA (final conc 0.16 mg/mL) and warmed to 37° C. for 5 min. The reaction was initiated upon addition of test compound (final concentration 0.5 μM). Immediately, at time zero, then at 3, 6, 15, 30, 60, 120 and 180 min, an aliquot (50 μL) of the incubation mixture was removed and mixed with acetonitrile (100 μL) to terminate the reaction. Internal standard was added to all samples, the samples centrifuged to sediment precipitated protein and the plates then sealed prior to UPLC-MS/MS analysis using a Quattro Premier XE (Waters corporation, USA).
Grafit (Erithacus Ltd) was used to calculate the exponential decay and consequently the rate constant (k) from the ratio of peak area of test compound to internal standard at each timepoint. The half life (T1/2) of each test compound was determined using the following equation: T1/2=0.693/k

The nature of data set [2]: Solubility in topical formulations. Format: physicochemical. The note with it: thermodynamic from solid, 5 hr at 32° C. The procedure: The solubilities of solid exemplary compounds were determined in a selection of solvents and solvent combinations (Transcutol, 50:50 Transcutol:water, Labrasol, propylene glycol and 1:5:4 ethanol:propylene glycol:water), after equilibration. An appropriate volume of each combination was added to a manual weighing of solid compound to provide a 20 mg/mL concentration. The resulting suspension was shaken at 1000 rpm for 5 hr at 32° C. before centrifugation at 13,000×g for 10 min to pellet any precipitate. The supernatant solution was removed and inserted into a HPLC vial and quantified by HPLC-UV against a calibration of a known concentration of the compound in DMSO.

Another data set addresses BRD4 BD2 (Homo sapiens (Human), UniProt O60885). Nature of the data set: Bromodomain binding assay (T7 phage display, qPCR), BRD4 BD2. The note with it: for Kd: read-out: BRD4 BD2 Kd. As to the method:
T7 phage strains displaying bromodomains were grown in parallel in 24-well blocks in an E. coli host derived from the BL21 strain. E. coli were grown to log-phase and infected with T7 phage from a frozen stock (multiplicity of infection=0.4) and incubated with shaking at 32° C. until lysis (90-150 min). The lysates were centrifuged (5,000×g) and filtered (0.2 μm) to remove cell debris. Streptavidin-coated magnetic beads were treated with biotinylated small molecule or acetylated peptide ligands for 30 min at RT to generate affinity resins for bromodomain assays. The ligated beads were blocked with excess biotin and washed with blocking buffer (SeaBlock (Pierce), 1% BSA, 0.05% Tween 20, 1 mM DTT) to remove unbound ligand and to reduce non-specific phage binding. Binding reactions were assembled by combining bromodomains, ligated affinity beads, and test compounds in 1× binding buffer (16% SeaBlock, 0.32×PBS, 0.02% BSA, 0.04% Tween 20, 0.004% Sodium azide, 7.9 mM DTT). Test compounds were prepared as 1000× stocks in 100% DMSO and subsequently diluted 1:25 in MEG. The compounds were then diluted directly into the assays such that the final concentrations of DMSO and MEG were 0.1% and 2.4%, respectively. All reactions were performed in polypropylene 384-well plates in a final volume of 0.02 ml. The assay plates were incubated at RT with shaking for 1 hr and the affinity beads were washed with wash buffer (1×PBS, 0.05% Tween 20). The beads were then re-suspended in elution buffer (1×PBS, 0.05% Tween 20, 2 μM non-biotinylated affinity ligand) and incubated at RT with shaking for 30 min. The bromodomain concentration in the eluates was measured by quantitative polymerase chain reaction (qPCR).
An 11-point 3-fold serial dilution of each test compound was prepared in 100% DMSO at 1000× final test concentration. All compounds were distributed by acoustic transfer (non-contact dispensing) in 100% DMSO. The compounds were then diluted directly into the assays such that the final concentration of DMSO was 0.09%. Most dissociation constants were determined using a compound top concentration=10,000 nM. If the initial dissociation constant determined was <0.169 nM (the lowest concentration tested), the measurement was repeated with a serial dilution starting at a lower top concentration.
The same bromodomain assay procedure as that outlined above was used. Example compounds were screened at 30 times their Kd, and results for primary screen binding interactions are reported as ‘% Ctrl’, where lower numbers indicate stronger hits in the matrix.

A further data set has as its target BRD4 BD1 (Homo sapiens (Human), UniProt O60885). Nature of the data set: Bromodomain binding assay (T7 phage display, qPCR), BRD4 BD1. The note with it: for Kd: read-out: BRD4 BD1 Kd.
The subject of data set [3] is CD4+ T-cells stimulated by CD2, CD3 and CD28 antibodies. Nature of the data set: Cellular activity IL-4: reduction of IL-4 levels in activated CD4+ T-cells. The note with it: Homo sapiens, T-cell. The data set is classed as cell-based, human. The procedure: • 1. CD4^+ T-cells are isolated from cryopreserved human peripheral blood mononuclear cells (PBMCs) using EasySep™ Kit (Cat. No. 17952, Stemcell Technologies). • 2. CD2, CD3 and CD28 antibodies coated beads from T cell Activation/Expansion Kit (Cat. No. 130-091-441, Miltenyi Biotec) are added to the CD4^+ T-cells at a bead-to-cell ratio of 1:2. • 3. CD4^+ T-cells along with the beads are seeded at 2×10^5 cells/well in a round bottom 96-well plate and treated with different compounds and controls in a total volume of 200 μl. • 4. The cells are cultured for 48 hrs at 37° C., 5% CO2. • 5. Supernatant is collected and IL-4 is analysed by ELISA.

The nature of data set [4]: Hydrolytic stability at a range of pHs. Format: physicochemical. The note with it: for decomposition at all pH values tested: pH 4.0, 5.5 and 7.4, text summary; for pH 4.0 % decomposition: pH 4.0 buffer; for pH 4.0 % decomposition / pH 5.5 % decomposition / pH 7.4 % decomposition: 60° C., 6 days; for pH 5.5 % decomposition: pH 5.5 buffer; for pH 7.4 % decomposition: pH 7.4 buffer. As to the method: To test the hydrolytic stability a 1 mg/mL solution of test materials was made in DMSO (0.1% solution). To 300 μL of each solution in a HPLC vials was added 1200 μL of one of the following: pH 4.0 buffer—left at 60° C. for 5 days. Samples taken t=0 hr and 6 days pH 5.5 buffer—left at 60° C. for 5 days. Samples taken t=0 hr and 6 days pH 7.4 buffer—left at 60° C. for 5 days. Samples taken t=0 hr and 6 days A 100 μL aliquot was taken at each time point and added to 900 μL of DMSO. This sample was used to determine % decomposition.
% decomposition was measured with a Bruker MicrOTOF II focus ESI Mass Spectrometer connected in parallel to Dionex Ultimate 3000 RSLC system with diode array detector.

Where [5] appears, read: Labrasol, oil or lipid, read-out: Solubility in LB (Labrasol).
[6] abbreviates: Transcutol, organic solvent or mixture, read-out: Solubility in TC (Transcutol).
[7] abbreviates: Transcutol:water 1:1, aqueous with cosolvent or surfactant or cyclodextrin, read-out: Solubility in TC:water 1:1.
[8] abbreviates: ethanol:propylene glycol:water 1:5:4, aqueous with cosolvent or surfactant or cyclodextrin, read-out: Solubility in EtOH:PG:water 1:5:4.
[9] abbreviates: propylene glycol, organic solvent or mixture, read-out: Solubility in PG (Propylene glycol).
Setting [10] is: single point, screened at 30 times Kd, lower numbers indicate stronger hits.
Setting [11] is: 48 hrs, ELISA, read-out: EC50 reduction of IL-4 levels.
Setting [12] is: read-out: cellular EC50 values, reduction of IL-4 levels.

Structures are written as SMILES. Where two headings read alike, the source gives them in different places.

As for `Cn1cc(-c2cccc(O)c2Oc2ccccc2)c2cc[nH]c2c1=O` [Example 1, 4-(3-hydroxy-2-phenoxyphenyl)-6-methyl-1,6-dihydro-7H-pyrrolo[2,3-c]pyridin-7-one], the half-life at 0.5 μM in data set [1] is over 120 min. Besides, the solubility at 5 hr in data set [2] (setting [5]) is 1000 to 10000 µg/mL; in data set [2] (setting [6]), over 10000 µg/mL; in data set [2] (setting [7]), 1000 to 10000 µg/mL; in data set [2] (setting [8]) it was 1000 to 10000 µg/mL; in data set [2] (setting [9]), 1000 to 10000 µg/mL. Also, the equilibrium dissociation constant (Kd) on BRD4 BD2 and on BRD4 BD1 was at most 0.01 µM throughout. Moreover, on BRD4 BD2 (setting [10]), the “BRD4(2) % Ctrl” value came to 2.6 % Ctrl. Moreover, the “BRD4(1) % Ctrl” value at BRD4 BD1 (setting [10]) is 0 % Ctrl. The 50% effective concentration (EC50) in data set [3] (setting [11]) is at most 0.01 µM; in data set [3] (setting [12]) it was under 0.1 µM. Moreover, the “decomposition at all pH values tested” value in data set [4] is reported as under 5%. For the same compound, the “pH 4.0 % decomposition” value in data set [4] is 0%. Besides, the “pH 5.5 % decomposition” value in data set [4] was determined as 0%. Besides, the “pH 7.4 % decomposition” value in data set [4] came to 0%.

As for `Cn1cc(-c2c(O)cccc2Oc2ccccc2)c2cc[nH]c2c1=O` [Example 3, 4-(2-hydroxy-6-phenoxyphenyl)-6-methyl-1,6-dihydro-7H-pyrrolo[2,3-c]pyridin-7-one], the half-life at 0.5 μM in data set [1] was over 120 min. In addition, the solubility at 5 hr in data set [2] (setting [5]) is over 10000 µg/mL; in data set [2] (setting [6]) it was over 10000 µg/mL; in data set [2] (setting [7]), over 10000 µg/mL; in data set [2] (setting [8]), 1000 to 10000 µg/mL; in data set [2] (setting [9]), over 10000 µg/mL. Moreover, the figures for the Kd on BRD4 BD2 and at BRD4 BD1 were at most 0.01 µM and 0.01 to 0.1 µM, respectively. The concentration for a half-maximal effect (EC50) in data set [3] (setting [11]) was 0.01 to 0.1 µM; in data set [3] (setting [12]) it was under 0.1 µM. For the same compound, the “decomposition at all pH values tested” value in data set [4] was under 5%. In data set [4], the “pH 4.0 % decomposition” value is on record as 0%. The “pH 5.5 % decomposition” value in data set [4] turned out to be 0%. Besides, in data set [4], the “pH 7.4 % decomposition” value is 0%.

The values above are taken from patent publication US12384777B2 (Tay Therapeutics Limited, priority 2019, dated 2025).
